Earlier results, collected in patent publication US9322040B2, “Pseudonocardia sp. and method for preparing deoxynyboquinone by utilizing same” (SOUTH CHINA SEA INSTITUTE OF OCEANOLOGY, CHINESE ACADEMY OF …, priority 2011, dated 2016).

System: cancer cell

Compound | cytotoxin activity | activity under anoxic conditions (anoxic conditions) | activity relative to Deoxynyboquinone (compared with the activity of Deoxynyboquinone)
Cc1cc(=O)[nH]c2c1C(=O)c1c(C)cc(=O)n(C)c1C2=O [Deoxynyboquinone] | significant cytotoxin activity | stronger activity can be still shown under anoxic conditions | –
Cc1cc(=O)n(C)c2c1C(=O)c1c(C)cc(=O)n(C)c1C2=O [SCH 538415, reference compound] | – | – | 10 times weaker
